Laboratory results as given in publication PMC3961306, “Comparison of the Cancer Gene Targeting and Biochemical Selectivities of All Targeted Kinase Inhibitors Approved for Clinical Use” (PLoS ONE, 2014).

What was measured:
Assay in all cases: Kinase profiling in a biochemical assay panel (mobility shift assays and ELISA), %-inhibition at 1 μM; selectivity entropy
[1] = target: panel of more than 300 wild-type and mutant kinases (313 kinase panel) (Homo sapiens, UniProt P11802); details: kinase CDK4/CycD3; 1 μM compound
[2] = target: panel of more than 300 wild-type and mutant kinases (313 kinase panel) (Homo sapiens, UniProt P19784); details: kinase CK2α2/β; 1 μM compound
[3] = target: T1, panel of more than 300 wild-type and mutant kinases (313 kinase panel) (Homo sapiens, UniProt P43403); details: kinase ZAP70; compound at 1 μM
T1 sequence (P43403 1-619): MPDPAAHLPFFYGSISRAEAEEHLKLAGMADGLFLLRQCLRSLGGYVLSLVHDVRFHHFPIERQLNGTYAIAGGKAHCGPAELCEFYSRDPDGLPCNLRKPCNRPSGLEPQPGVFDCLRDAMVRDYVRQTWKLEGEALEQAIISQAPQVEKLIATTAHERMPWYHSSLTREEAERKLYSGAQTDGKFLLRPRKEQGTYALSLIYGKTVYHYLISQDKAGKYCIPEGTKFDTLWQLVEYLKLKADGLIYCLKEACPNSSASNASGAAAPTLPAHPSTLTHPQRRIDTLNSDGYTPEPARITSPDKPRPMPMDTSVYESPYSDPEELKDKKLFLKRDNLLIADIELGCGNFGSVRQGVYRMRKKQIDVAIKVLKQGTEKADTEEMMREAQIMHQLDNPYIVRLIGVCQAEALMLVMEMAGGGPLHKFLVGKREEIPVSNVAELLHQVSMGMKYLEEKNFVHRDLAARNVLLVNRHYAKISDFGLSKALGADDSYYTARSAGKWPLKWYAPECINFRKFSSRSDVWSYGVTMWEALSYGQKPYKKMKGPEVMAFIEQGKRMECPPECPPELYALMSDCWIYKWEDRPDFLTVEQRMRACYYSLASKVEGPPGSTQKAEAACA

[4] = target: panel of more than 300 wild-type and mutant kinases (313 kinase panel) (Homo sapiens, UniProt Q16644); details: kinase MAPKAPK3; compound at 1 μM
[5] = target: panel of more than 300 wild-type and mutant kinases (313 kinase panel) (Homo sapiens, UniProt Q9H1R3); details: kinase skMLCK; 1 μM
[6] = target: panel of more than 300 wild-type and mutant kinases (313 kinase panel) (Homo sapiens, UniProt Q15303); details: kinase HER4; compound at 1 μM
[7] = target: panel of more than 300 wild-type and mutant kinases (313 kinase panel) (Homo sapiens, UniProt P41279); details: kinase COT; compound at 1 μM
[8] = target: T2, panel of more than 300 wild-type and mutant kinases (313 kinase panel) (Homo sapiens, UniProt O15146); details: kinase MUSK; 1 μM
T2 sequence (O15146 24-869): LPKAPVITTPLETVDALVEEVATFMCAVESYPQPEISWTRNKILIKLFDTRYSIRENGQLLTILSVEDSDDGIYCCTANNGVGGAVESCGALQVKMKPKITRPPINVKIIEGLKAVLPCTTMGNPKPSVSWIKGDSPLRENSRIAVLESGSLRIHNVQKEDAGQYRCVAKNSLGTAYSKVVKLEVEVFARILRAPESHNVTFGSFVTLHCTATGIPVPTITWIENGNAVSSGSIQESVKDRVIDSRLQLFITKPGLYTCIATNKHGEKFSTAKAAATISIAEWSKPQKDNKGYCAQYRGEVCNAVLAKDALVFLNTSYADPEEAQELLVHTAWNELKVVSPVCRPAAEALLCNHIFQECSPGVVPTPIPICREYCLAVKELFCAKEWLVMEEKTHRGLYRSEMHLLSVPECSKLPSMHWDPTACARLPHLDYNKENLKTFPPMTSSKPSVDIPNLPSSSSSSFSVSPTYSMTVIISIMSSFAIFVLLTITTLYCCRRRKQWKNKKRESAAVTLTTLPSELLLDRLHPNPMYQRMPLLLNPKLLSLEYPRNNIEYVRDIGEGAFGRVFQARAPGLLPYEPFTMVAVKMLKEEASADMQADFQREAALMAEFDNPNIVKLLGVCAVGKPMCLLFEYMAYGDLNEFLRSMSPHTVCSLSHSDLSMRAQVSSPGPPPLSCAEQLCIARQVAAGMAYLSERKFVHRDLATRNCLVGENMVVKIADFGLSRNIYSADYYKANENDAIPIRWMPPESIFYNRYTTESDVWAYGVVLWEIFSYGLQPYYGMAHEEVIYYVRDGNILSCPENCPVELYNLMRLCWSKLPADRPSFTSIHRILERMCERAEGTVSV

Chain of panel of more than 300 wild-type and mutant kinases (313 kinase panel) (Homo sapiens, UniProt Q16644) (Q16644 whole entry, change not shown): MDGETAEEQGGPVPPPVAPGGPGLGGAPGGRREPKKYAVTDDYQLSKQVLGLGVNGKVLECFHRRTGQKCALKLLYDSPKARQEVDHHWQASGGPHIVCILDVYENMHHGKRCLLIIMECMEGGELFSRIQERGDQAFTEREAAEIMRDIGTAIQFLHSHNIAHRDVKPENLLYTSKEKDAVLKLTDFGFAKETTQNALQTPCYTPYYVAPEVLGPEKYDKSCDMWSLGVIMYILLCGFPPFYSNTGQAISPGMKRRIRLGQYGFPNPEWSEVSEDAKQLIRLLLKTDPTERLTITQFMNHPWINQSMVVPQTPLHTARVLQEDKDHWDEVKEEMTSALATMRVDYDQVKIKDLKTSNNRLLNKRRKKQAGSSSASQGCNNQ
Chain of panel of more than 300 wild-type and mutant kinases (313 kinase panel) (Homo sapiens, UniProt P19784) (P19784 whole entry, change not shown): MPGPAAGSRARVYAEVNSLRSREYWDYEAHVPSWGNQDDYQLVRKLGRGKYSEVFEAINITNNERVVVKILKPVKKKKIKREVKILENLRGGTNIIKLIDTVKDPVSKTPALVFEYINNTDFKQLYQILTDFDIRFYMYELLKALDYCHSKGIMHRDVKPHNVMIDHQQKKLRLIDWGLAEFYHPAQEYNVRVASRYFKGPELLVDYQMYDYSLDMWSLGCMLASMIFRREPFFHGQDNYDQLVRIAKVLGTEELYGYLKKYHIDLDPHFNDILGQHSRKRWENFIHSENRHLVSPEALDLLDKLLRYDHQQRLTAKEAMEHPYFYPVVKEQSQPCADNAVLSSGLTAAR
Chain of panel of more than 300 wild-type and mutant kinases (313 kinase panel) (Homo sapiens, UniProt P41279) (P41279 whole entry, change not shown): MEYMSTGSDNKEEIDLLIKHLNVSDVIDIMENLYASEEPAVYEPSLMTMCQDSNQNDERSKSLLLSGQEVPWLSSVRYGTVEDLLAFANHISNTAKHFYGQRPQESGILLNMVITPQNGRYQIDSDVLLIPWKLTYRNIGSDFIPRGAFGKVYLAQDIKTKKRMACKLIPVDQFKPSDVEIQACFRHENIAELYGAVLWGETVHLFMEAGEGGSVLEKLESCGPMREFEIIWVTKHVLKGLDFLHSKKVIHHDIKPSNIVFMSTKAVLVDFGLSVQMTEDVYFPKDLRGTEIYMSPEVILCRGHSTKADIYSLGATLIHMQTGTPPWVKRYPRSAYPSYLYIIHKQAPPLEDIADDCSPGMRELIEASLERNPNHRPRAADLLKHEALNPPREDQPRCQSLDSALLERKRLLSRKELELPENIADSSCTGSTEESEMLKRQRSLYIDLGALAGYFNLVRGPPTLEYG
Chain of panel of more than 300 wild-type and mutant kinases (313 kinase panel) (Homo sapiens, UniProt Q15303) (Q15303 26-1308, change not shown): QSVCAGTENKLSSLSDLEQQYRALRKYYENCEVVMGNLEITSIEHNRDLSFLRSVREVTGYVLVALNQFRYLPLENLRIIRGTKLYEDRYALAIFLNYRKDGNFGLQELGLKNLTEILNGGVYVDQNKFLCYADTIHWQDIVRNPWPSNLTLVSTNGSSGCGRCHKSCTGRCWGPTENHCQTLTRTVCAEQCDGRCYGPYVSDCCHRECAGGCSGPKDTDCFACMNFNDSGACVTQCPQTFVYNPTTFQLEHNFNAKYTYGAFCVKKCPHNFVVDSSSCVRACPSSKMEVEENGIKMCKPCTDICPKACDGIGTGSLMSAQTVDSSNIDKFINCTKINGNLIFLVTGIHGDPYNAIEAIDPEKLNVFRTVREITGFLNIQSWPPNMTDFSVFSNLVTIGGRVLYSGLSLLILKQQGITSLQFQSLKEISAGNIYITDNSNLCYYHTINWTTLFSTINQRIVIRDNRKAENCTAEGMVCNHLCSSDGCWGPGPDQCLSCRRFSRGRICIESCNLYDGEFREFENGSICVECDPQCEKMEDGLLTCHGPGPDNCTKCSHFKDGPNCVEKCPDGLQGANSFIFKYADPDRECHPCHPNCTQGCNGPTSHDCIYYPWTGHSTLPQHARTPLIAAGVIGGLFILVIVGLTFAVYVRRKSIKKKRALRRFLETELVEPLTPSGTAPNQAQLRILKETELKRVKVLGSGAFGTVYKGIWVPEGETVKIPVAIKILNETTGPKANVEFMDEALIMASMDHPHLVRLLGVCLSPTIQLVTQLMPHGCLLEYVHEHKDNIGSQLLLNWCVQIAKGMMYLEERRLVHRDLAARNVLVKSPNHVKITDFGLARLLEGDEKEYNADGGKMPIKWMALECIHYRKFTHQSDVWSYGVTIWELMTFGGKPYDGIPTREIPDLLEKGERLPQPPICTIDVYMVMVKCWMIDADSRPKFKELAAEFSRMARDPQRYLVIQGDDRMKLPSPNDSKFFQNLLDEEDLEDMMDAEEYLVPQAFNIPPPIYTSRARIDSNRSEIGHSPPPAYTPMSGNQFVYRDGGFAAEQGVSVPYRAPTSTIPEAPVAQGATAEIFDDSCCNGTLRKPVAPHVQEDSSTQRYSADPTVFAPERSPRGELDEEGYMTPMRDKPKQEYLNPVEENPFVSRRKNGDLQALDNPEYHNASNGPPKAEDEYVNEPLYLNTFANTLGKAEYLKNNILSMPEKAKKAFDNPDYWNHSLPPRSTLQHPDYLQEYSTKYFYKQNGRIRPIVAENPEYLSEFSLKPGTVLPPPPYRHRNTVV
Chain of panel of more than 300 wild-type and mutant kinases (313 kinase panel) (Homo sapiens, UniProt P11802) (P11802 whole entry, change not shown): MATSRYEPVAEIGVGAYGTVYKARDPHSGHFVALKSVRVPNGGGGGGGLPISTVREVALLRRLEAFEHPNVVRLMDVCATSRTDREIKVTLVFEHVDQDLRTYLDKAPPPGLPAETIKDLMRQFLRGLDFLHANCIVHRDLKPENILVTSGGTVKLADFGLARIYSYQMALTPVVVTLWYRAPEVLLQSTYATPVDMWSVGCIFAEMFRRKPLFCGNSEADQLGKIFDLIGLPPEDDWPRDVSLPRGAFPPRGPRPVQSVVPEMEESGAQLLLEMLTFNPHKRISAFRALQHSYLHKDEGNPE

SMILES | %-inhibition, CDK4/CycD3 [1] [%] | %-inhibition, CK2α2/β [2] [%] | %-inhibition of ZAP70 [3] [%] | %-inhibition of MAPKAPK3 [4] [%] | %-inhibition of skMLCK [5] [%] | %-inhibition of HER4 [6] [%] | %-inhibition of COT [7] [%] | %-inhibition of MUSK [8] [%]
CC(=O)Nc1cccc(-n2c(=O)n(C3CC3)c(=O)c3c(Nc4ccc(I)cc4F)n(C)c(=O)c(C)c32)c1 [trametinib] | 5.62 | -5.29 | -3 | -9 | -3.34 | 2.34 | 13 | -0.929
CCCS(=O)(=O)Nc1ccc(F)c(C(=O)c2c[nH]c3ncc(-c4ccc(Cl)cc4)cc23)c1F [vemurafenib] | -3.26 | -6.56 | 6 | 12 | 53 | 11 | 4.34 | -0.285
